From PubChem BioAssay (NCI)
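The concentration for 50% growth inhibition is given as GI50. Definition used: TGI = concentration required for complete inhibition of growth.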

Legend:
Test in all cases: NCI tumour cell line growth inhibition, 384-well format; in the data active = GI50 below about 0.43 µM; inactive = the rest
[1] = test system: NCI-H226 lung
[2] = test system: SK-MEL-28 melanoma
[3] = test system: SNB-19 CNS
[4] = test system: HS 578T breast
[5] = test system: SF-539 CNS
[6] = test system: TK-10 renal
[7] = test system: NCI-H322M lung
[8] = test system: SK-MEL-5 melanoma
[9] = test system: U251 glioblastoma
[10] = test system: HT29 colon
[11] = test system: MDA-MB-435 melanoma
[12] = test system: SK-OV-3 ovarian
[13] = test system: NCI-H522 lung
[14] = test system: ACHN renal
[15] = test system: HCT-116 colon
[16] = test system: RXF 393 renal
[17] = test system: DU-145 prostate
[18] = test system: CAKI-1 renal
[19] = test system: RPMI-8226 leukemia
[20] = test system: OVCAR-4 ovarian
[21] = test system: NCI/ADR-RES ovarian
[22] = test system: HL-60(TB) leukemia
[23] = test system: MDA-MB-231 breast
[24] = test system: HCC-2998 colon
[25] = test system: COLO 205 colon
[26] = test system: OVCAR-3 ovarian
[27] = test system: UACC-257 melanoma

Cc1c(Cn2c(C)nc3c(C(=O)O)cc(N4CCOCC4)cc32)cccc1C(F)(F)F
57.8 µM: TGI [8]
> 100 µM: TGI [1] | TGI [2] | TGI [3] | TGI [4] | TGI [5] | TGI [6] | TGI [7] | TGI [9] | TGI [10] | TGI [11] | TGI [12] | TGI [13] | TGI [14] | TGI [15] | TGI [16] | TGI [17] | TGI [18] | TGI [19] | TGI [20] | TGI [22] | TGI [23] | TGI [24] | TGI [25] | TGI [26] | TGI [27]
inactive: GI50 [1] 64.9 µM | GI50 [2] > 100 µM | GI50 [3] 89.1 µM | GI50 [4] 82.8 µM | GI50 [5] 54 µM | GI50 [6] 35.2 µM | GI50 [7] 60.9 µM | GI50 [8] 18 µM | GI50 [9] 48.8 µM | GI50 [10] 54.7 µM | GI50 [11] 75 µM | GI50 [12] 61.8 µM | GI50 [13] 75.6 µM | GI50 [14] 20.8 µM | GI50 [15] 38.2 µM | GI50 [16] 14.6 µM | GI50 [17] 52.1 µM | GI50 [18] 57.7 µM | GI50 [19] 46.7 µM | GI50 [20] 31.8 µM | GI50 [21] 3.1 µM | GI50 [22] 18.3 µM | GI50 [23] 97.2 µM | GI50 [24] 45.2 µM | GI50 [25] 99.8 µM | GI50 [26] 39.3 µM | GI50 [27] 56.3 µM
11.1 µM: TGI [21]
